Values quoted from earlier work in patent publication US20120058205A1, “COMPOSITIONS AND TREATMENT REGIMES FOR REDUCING INFLAMMATION, END-ORGAN INJURY, AND/OR SYSTEMIC ENDOTOXEMIA” (priority 2009, published 2012).

Legend:
aldosterone = details: administration to diabetic patients
[1] = animal model; also printed as ≦1,000 nmol/L
[2] = consistently above; also printed as 500 nmol/L; possible hypercalcemia and hyperphosphatemia

CC(=O)S[C@@H]1CC2=CC(=O)CC[C@]2(C)[C@H]2CC[C@@]3(C)[C@@H](CC[C@@]34CCC(=O)O4)[C@H]12 [spironolactone]
increase of aldosterone levels (aldosterone): ≥ 400%

C=C1/C(=C\C=C2/CCC[C@]3(C)[C@@H]([C@H](C)CCCC(C)(C)O)CC[C@@H]23)C[C@@H](O)C[C@@H]1O [1,25(OH)2D, 1,25-dihydroxyvitamin D]
half-life (circulating): 15 h

C=C1CC[C@H](O)C/C1=C/C=C1\CCC[C@]2(C)[C@@H]([C@H](C)CCCC(C)(C)O)CC[C@@H]12 [25(OH)D, 25-hydroxyvitamin D]
concentrations that demonstrated no toxicity [1]: ≤ 0.4 µg/mL | circulating half-life (in vivo): 360 h | serum concentration considered potentially toxic [2]: above 200 ng/mL
